Test results published in PubChem BioAssay (NCI).
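Assay format: 96-well plates, 48-hour exposure. Definition used: TGI = concentration required for complete inhibition of growth.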

Tests used:
Test in all cases: NCI-60 cell line screen, 48 h
[1] = tested on: HCC-2998 colon
[2] = tested on: UACC-62 melanoma
[3] = tested on: COLO 205 colon
[4] = tested on: ACHN renal
[5] = tested on: A549 NSCLC
[6] = tested on: SNB-75 CNS
[7] = tested on: M14 melanoma
[8] = tested on: K-562 leukemia
[9] = tested on: OVCAR-4 ovarian
[10] = tested on: OVCAR-3 ovarian
[11] = tested on: UACC-257 melanoma
[12] = tested on: SK-MEL-2 melanoma
[13] = tested on: KM20L2 colon
[14] = tested on: HOP-92 NSCLC
[15] = tested on: MALME-3M melanoma
[16] = tested on: CCRF-CEM leukemia
[17] = tested on: OVCAR-5 ovarian
[18] = tested on: HL-60(TB) leukemia
[19] = tested on: XF 498 CNS
[20] = tested on: SK-OV-3 ovarian
[21] = tested on: UO-31 renal
[22] = tested on: MOLT-4 leukemia
[23] = tested on: HOP-62 NSCLC
[24] = tested on: RXF 393 renal
[25] = tested on: A498 renal
[26] = tested on: DLD-1 colon
[27] = tested on: SF-268 CNS
[28] = tested on: IGROV1 ovarian
[29] = tested on: SNB-78 CNS
[30] = tested on: HCT-15 colon
[31] = tested on: CAKI-1 renal
[32] = tested on: RPMI-8226 leukemia
[33] = tested on: LXFL 529 NSCLC
[34] = tested on: SF-539 CNS
[35] = tested on: HOP-18 NSCLC
[36] = tested on: SW-620 colon
[37] = tested on: NCI-H23 lung
[38] = tested on: SK-MEL-5 melanoma
[39] = tested on: U251 CNS
[40] = tested on: SN12C renal
[41] = tested on: KM12 colon
[42] = tested on: DMS 273 small cell lung
[43] = tested on: NCI-H460 lung
[44] = tested on: 786-0 renal
[45] = tested on: HT29 colon
[46] = tested on: SK-MEL-28 melanoma
[47] = tested on: M19-MEL melanoma
[48] = tested on: NCI-H226 lung
[49] = tested on: LOX IMVI melanoma
[50] = tested on: SF-295 CNS
[51] = tested on: NCI-H522 lung
[52] = tested on: SNB-19 CNS
[53] = tested on: EKVX NSCLC
[54] = tested on: TK-10 renal
[55] = tested on: OVCAR-8 ovarian
[56] = tested on: DMS 114 small cell lung
[57] = tested on: HCT-116 colon
[58] = tested on: SR leukemia

O=C(OCc1ccccc1)N1N=NC2C1C1CC(OCc3ccccc3)(OCc3ccccc3)C2O1 (configuration not stated)
TGI [1]: > 100 µM
TGI [2]: > 100 µM
TGI [3]: > 100 µM
TGI [4]: > 100 µM
TGI [5]: > 100 µM
TGI [6]: > 100 µM
TGI [7]: > 100 µM
TGI [8]: > 100 µM
TGI [9]: > 100 µM
TGI [10]: > 100 µM
TGI [11]: > 100 µM
TGI [12]: > 100 µM
TGI [13]: > 100 µM
TGI [14]: > 100 µM
TGI [15]: > 100 µM
TGI [16]: > 100 µM
TGI [17]: > 100 µM
TGI [18]: > 100 µM
TGI [19]: > 100 µM
TGI [20]: > 100 µM
TGI [21]: > 100 µM
TGI [22]: > 100 µM
TGI [23]: > 100 µM
TGI [24]: > 100 µM
TGI [25]: > 100 µM
TGI [26]: > 100 µM
TGI [27]: > 100 µM
TGI [28]: > 100 µM
TGI [29]: > 100 µM
TGI [30]: > 100 µM
TGI [31]: > 100 µM
TGI [32]: > 100 µM
TGI [33]: > 100 µM
TGI [34]: > 100 µM
TGI [35]: > 100 µM
TGI [36]: > 100 µM
TGI [37]: > 100 µM
TGI [38]: > 100 µM
TGI [39]: > 100 µM
TGI [40]: > 100 µM
TGI [41]: > 100 µM
TGI [42]: > 100 µM
TGI [43]: > 100 µM
TGI [44]: > 100 µM
TGI [45]: > 100 µM
TGI [46]: > 100 µM
TGI [47]: > 100 µM
TGI [48]: > 100 µM
TGI [49]: > 100 µM
TGI [50]: > 100 µM

Cn1nc(-c2ccccc2)c(C(=O)/C=C/c2ccc(F)cc2)c(N2CCCC2)c1=O
TGI [2]: 38.4 µM
TGI [3]: 32.1 µM
TGI [4]: 62.8 µM
TGI [5]: > 100 µM
TGI [7]: 37.4 µM
TGI [8]: 38.5 µM
TGI [51]: 20.7 µM
TGI [52]: 48.6 µM
TGI [53]: 52.9 µM
TGI [13]: 28.3 µM
TGI [54]: 71.4 µM
TGI [14]: 36.3 µM
TGI [16]: 27.8 µM
TGI [18]: 23.2 µM
TGI [19]: 54.2 µM
TGI [20]: 59.1 µM
TGI [22]: 31.3 µM
TGI [24]: 22.1 µM
TGI [26]: 39.4 µM
TGI [27]: 51 µM
TGI [28]: 50.5 µM
TGI [30]: 70 µM
TGI [31]: 61.9 µM
TGI [32]: 30.5 µM
TGI [55]: > 100 µM
TGI [33]: 32.1 µM
TGI [34]: 28 µM
TGI [35]: 31.8 µM
TGI [36]: 37.1 µM
TGI [37]: 32.7 µM
TGI [38]: 26.9 µM
TGI [39]: 29.2 µM
TGI [40]: > 100 µM
TGI [42]: 83.3 µM
TGI [43]: 91.7 µM
TGI [44]: 31.2 µM
TGI [45]: 15.3 µM
TGI [46]: 32.8 µM
TGI [47]: 33.8 µM
TGI [56]: 29.1 µM
TGI [57]: 20.5 µM
TGI [49]: > 100 µM

CSc1nc2c(nc(N)n2C2OC(CO)C(O)C(O)C2O)c(=O)n1C (configuration not stated)
TGI [1]: > 100 µM
TGI [2]: > 100 µM
TGI [3]: > 100 µM
TGI [4]: > 100 µM
TGI [5]: > 100 µM
TGI [6]: > 100 µM
TGI [7]: > 100 µM
TGI [8]: > 100 µM
TGI [9]: > 100 µM
TGI [10]: > 100 µM
TGI [51]: > 100 µM
TGI [11]: > 100 µM
TGI [52]: > 100 µM
TGI [53]: > 100 µM
TGI [13]: > 100 µM
TGI [54]: > 100 µM
TGI [14]: > 100 µM
TGI [15]: > 100 µM
TGI [16]: > 100 µM
TGI [18]: > 100 µM
TGI [19]: > 100 µM
TGI [20]: > 100 µM
TGI [21]: > 100 µM
TGI [22]: > 100 µM
TGI [23]: > 100 µM
TGI [24]: > 100 µM
TGI [25]: > 100 µM
TGI [26]: > 100 µM
TGI [27]: > 100 µM
TGI [28]: > 100 µM
TGI [29]: > 100 µM
TGI [31]: > 100 µM
TGI [55]: > 100 µM
TGI [33]: > 100 µM
TGI [34]: > 100 µM
TGI [35]: > 100 µM
TGI [36]: > 100 µM
TGI [37]: > 100 µM
TGI [38]: > 100 µM
TGI [39]: > 100 µM
TGI [40]: > 100 µM
TGI [41]: > 100 µM
TGI [43]: > 100 µM
TGI [44]: > 100 µM
TGI [45]: > 100 µM
TGI [46]: > 100 µM
TGI [47]: > 100 µM
TGI [48]: > 100 µM
TGI [56]: > 100 µM
TGI [57]: > 100 µM
TGI [49]: > 100 µM
TGI [58]: > 100 µM
TGI [50]: > 100 µM

C[O+]=c1cccc2ssnc1-2
TGI [1]: > 100 µM
TGI [2]: 58.8 µM
TGI [3]: > 100 µM
TGI [4]: > 100 µM
TGI [5]: > 100 µM
TGI [6]: > 100 µM
TGI [7]: > 100 µM
TGI [8]: 91.6 µM
TGI [9]: > 100 µM
TGI [10]: > 100 µM
TGI [51]: > 10 µM
TGI [11]: 88.5 µM
TGI [12]: > 100 µM
TGI [52]: > 100 µM
TGI [53]: > 100 µM
TGI [13]: > 100 µM
TGI [54]: > 100 µM
TGI [15]: > 100 µM
TGI [16]: > 10 µM
TGI [17]: > 100 µM
TGI [18]: 69.6 µM
TGI [19]: 43.1 µM
TGI [20]: > 100 µM
TGI [21]: 98 µM
TGI [22]: 96.1 µM
TGI [23]: > 100 µM
TGI [24]: > 100 µM
TGI [25]: > 100 µM
TGI [26]: > 100 µM
TGI [27]: > 100 µM
TGI [28]: > 100 µM
TGI [29]: > 100 µM
TGI [30]: > 100 µM
TGI [31]: > 100 µM
TGI [55]: 74.1 µM
TGI [33]: > 100 µM
TGI [34]: > 100 µM
TGI [35]: > 100 µM
TGI [36]: 70.6 µM
TGI [37]: > 100 µM
TGI [38]: 58.7 µM
TGI [39]: > 10 µM
TGI [40]: > 100 µM
TGI [41]: > 100 µM
TGI [42]: > 100 µM
TGI [43]: > 100 µM
TGI [44]: > 100 µM
TGI [45]: > 100 µM
TGI [46]: > 100 µM
TGI [47]: 69.3 µM
TGI [48]: > 100 µM
TGI [57]: > 100 µM
TGI [49]: > 100 µM
TGI [58]: 64.8 µM
TGI [50]: > 100 µM

O=C(/C=C/c1ccccc1F)c1ccc([N+](=O)[O-])cc1
TGI [1]: 30.3 µM
TGI [2]: 81.2 µM
TGI [3]: > 100 µM
TGI [4]: > 100 µM
TGI [5]: > 100 µM
TGI [6]: 42.6 µM
TGI [7]: 72.6 µM
TGI [8]: 34.8 µM
TGI [9]: 89.7 µM
TGI [10]: 77.9 µM
TGI [53]: > 100 µM
TGI [13]: > 100 µM
TGI [54]: > 100 µM
TGI [14]: 45.5 µM
TGI [15]: 70 µM
TGI [19]: 58.9 µM
TGI [20]: > 100 µM
TGI [21]: 39.8 µM
TGI [23]: > 100 µM
TGI [24]: 49.8 µM
TGI [26]: 39.1 µM
TGI [27]: > 100 µM
TGI [28]: 63.9 µM
TGI [29]: > 100 µM
TGI [30]: 43.8 µM
TGI [31]: 85.4 µM
TGI [55]: 73.5 µM
TGI [33]: 40.7 µM
TGI [35]: > 100 µM
TGI [36]: 84 µM
TGI [37]: > 100 µM
TGI [39]: 31.1 µM
TGI [40]: > 100 µM
TGI [42]: > 100 µM
TGI [43]: 93 µM
TGI [44]: > 100 µM
TGI [45]: 39.9 µM
TGI [46]: 43.2 µM
TGI [47]: 50.5 µM
TGI [56]: 44 µM
TGI [49]: 15.5 µM
TGI [50]: 75.6 µM
